{"source": "patent US20250215029A1", "about": "(Recludix Pharma, Inc., priority 2022, published 2025)"}
{"molecular_target": "T1, pY705-STAT3 in PBMC (Homo sapiens, UniProt P40763)", "T1 construct": "Cryopreserved Peripheral Blood Mononuclear Cells (PBMC) are from AllCells; host or cells: cryopreserved PBMC", "T1 sequence (P40763 whole entry)": "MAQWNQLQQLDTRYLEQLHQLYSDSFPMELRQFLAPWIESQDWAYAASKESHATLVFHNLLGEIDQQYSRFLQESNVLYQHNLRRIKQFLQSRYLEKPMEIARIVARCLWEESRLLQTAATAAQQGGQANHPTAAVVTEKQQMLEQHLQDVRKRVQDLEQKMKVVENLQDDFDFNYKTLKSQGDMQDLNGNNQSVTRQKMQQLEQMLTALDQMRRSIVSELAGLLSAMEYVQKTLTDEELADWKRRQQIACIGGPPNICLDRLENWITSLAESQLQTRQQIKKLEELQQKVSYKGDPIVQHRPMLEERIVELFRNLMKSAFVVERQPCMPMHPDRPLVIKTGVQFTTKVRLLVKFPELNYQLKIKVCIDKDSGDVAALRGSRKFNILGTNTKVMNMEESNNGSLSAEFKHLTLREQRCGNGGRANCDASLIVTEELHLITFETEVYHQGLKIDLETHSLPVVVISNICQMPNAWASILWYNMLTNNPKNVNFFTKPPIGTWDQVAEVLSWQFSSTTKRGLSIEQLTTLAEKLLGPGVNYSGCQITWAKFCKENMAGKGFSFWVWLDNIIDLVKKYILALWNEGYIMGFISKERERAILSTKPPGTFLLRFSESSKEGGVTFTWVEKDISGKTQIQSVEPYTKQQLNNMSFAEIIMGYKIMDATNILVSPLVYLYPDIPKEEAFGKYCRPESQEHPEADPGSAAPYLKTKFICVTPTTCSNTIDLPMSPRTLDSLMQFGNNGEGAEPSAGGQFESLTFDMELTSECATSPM", "assay": "MSD-pSTAT-PBMC Assay (pSTAT3, IL-6 stimulated)", "assay_type": "cell-based", "details": "PBMC, compound 3 hrs, then 10 ng/mL IL-6 for 10 min; Table 115; read-out: STAT3", "procedure,_shortened": "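Human PBMCs were pretreated with compound for 3 h, then stimulated with 10 ng/mL IL-6 for 10 min. Lysate pY705-STAT3 was measured by MSD sandwich immunoassay (anti-STAT3 capture) and corrected for unstimulated background. Signal was normalized to DMSO, and IC50 came from variable-slope regression.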", "units": {"IC50": "nM"}}
{"smiles": "CCCOC(=O)[C@H](C)N[P@](=O)(Oc1ccccc1)[C@H](F)c1ccc2sc(C(=O)N[C@H]3C[C@@H](C)C[C@H]4CC[C@@H](C(=O)N5CC(c6cnccc6C)C5)N4C3=O)cc2c1", "note": "(single isomer, unassigned) [Compound 1048]", "IC50": "< 100"}
{"smiles": "CCCOC(=O)CC(C)NP(=O)(Cc1ccc2sc(C(=O)N[C@H]3CCC[C@H]4CC[C@@H](C(=O)N5CC(c6cccnc6)C5)N4C3=O)cc2c1)Oc1ccccc1", "note": "(stereo partly drawn) [Compound 311, propyl 3-((((2-(((3S,6S,9aS)-5-oxo-3-(3-(pyridin-3-yl)azetidine-1-carbonyl)octahydro-1H-pyrrolo[1,2-a]azepin-6-yl)carbamoyl)benzo [b]thiophen-5-yl)methyl)(phenoxy)phosphoryl)amino) butanoate]", "IC50": "> 3000"}
{"smiles": "CCCOC(=O)[C@H](C)NP(=O)(Cc1ccc2sc(C(=O)N[C@H]3CCC[C@H]4CC[C@@H](C(=O)N5CC(c6cnccc6N6CCOCC6)C5)N4C3=O)cc2c1)Oc1ccccc1", "note": "(stereo partly drawn) [Compound 1038, propyl (((2-(((3S,6S,9aS)-3-(3-(4-morpholinopyridin-3-yl)azetidine-1-carbonyl)-5-oxooctahydro-1H-pyrrolo[1,2-a]azepin-6-yl)carbamoyl)benzo [b]thiophen-5-yl)methyl)(phenoxy)phosphoryl)-L-alaninate]", "IC50": "< 100"}
{"smiles": "CCCOC(=O)[C@H](CCOC)NP(=O)(Cc1ccc2sc(C(=O)N[C@H]3CCC[C@H]4CC[C@@H](C(=O)N5CC(c6cccnc6)C5)N4C3=O)cc2c1)Oc1ccccc1", "note": "(stereo partly drawn) [Compound 431, propyl O-methyl-N-(((2-(((3S,6S,9aS)-5-oxo-3-(3-(pyridin-3-yl)azetidine-1-carbonyl)octahydro-1H-pyrrolo[1,2-a]azepin-6-yl)carbamoyl)benzo [b]thiophen-5-yl)methyl)(phenoxy)phosphoryl)-L-homoserinate]", "IC50": "100 to 1000"}
{"smiles": "CCCOC(=O)[C@H](C)NP(=O)(Oc1ccccc1)C(F)c1ccc2sc(C(=O)N[C@H]3CCC[C@H]4CC[C@@H](C(=O)N5CC(c6cnccc6CC)C5)N4C3=O)cc2c1", "note": "(stereo partly drawn) [Compound 261, propyl (((2-(((3S,6S,9aS)-3-(3-(4-ethylpyridin-3-yl)azetidine-1-carbonyl)-5-oxooctahydro-1H-pyrrolo[1,2-a]azepin-6-yl)carbamoyl)benzo [b]thiophen-5-yl)fluoromethyl) (phenoxy)phosphoryl)-L-alaninate]", "IC50": "< 100"}
{"smiles": "CC(C)COC(=O)[C@H](C)NP(=O)(Cc1ccc2sc(C(=O)N[C@H]3CCC[C@H]4CC[C@@H](C(=O)N5CC(c6cccnc6)C5)N4C3=O)cc2c1)Oc1ccccc1", "note": "(stereo partly drawn) [Compound 259, isobutyl (((2-(((3S,6S,9aS)-5-oxo-3-(3-(pyridin-3-yl)azetidine-1-carbonyl)octahydro-1H-pyrrolo[1,2-a]azepin-6-yl)carbamoyl)benzo [b]thiophen-5-yl)methyl)(phenoxy)phosphoryl)-L-alaninate]", "IC50": "< 100"}
{"smiles": "COc1ccncc1C1CN(C(=O)[C@@H]2CC[C@@H]3CCC[C@H](NC(=O)c4cc5cc([C@H](F)[P@@](=O)(N[C@@H](C)C(=O)OCc6ccccc6)Oc6ccccc6)ccc5s4)C(=O)N32)C1", "note": "(single isomer, unassigned) [Compound 1051]", "IC50": "100 to 1000"}
{"smiles": "CC(C)CC(=O)SCCOP(=O)(OCOC(=O)O[C@H]1CCOC1)C(F)(F)c1ccc2sc(C(=O)N[C@H]3CCC[C@H]4CC[C@@H](C(=O)N5CC(c6ncccn6)C5)N4C3=O)cc2c1", "note": "(stereo partly drawn) [Compound 1099, S-(2-(((difluoro(2-(((3S,6S,9aS)-5-oxo-3-(3-(pyrimidin-2-yl)azetidine-1-carbonyl)octahydro-1H-pyrrolo[1,2-a]azepin-6-yl)carbamoyl)benzo [b]thiophen-5-yl)methyl)((((((S)-tetrahydrofuran-3-yl)oxy)carbonyl)oxy)methoxy)phosphoryl)oxy)ethyl) 3-methylbutanethioate]", "IC50": "< 100"}
{"smiles": "CCCCOC(=O)[C@H](C)NP(=O)(Cc1ccc2sc(C(=O)N[C@H]3CCC[C@H]4CC[C@@H](C(=O)N5CC(c6ncccc6C)C5)N4C3=O)cc2c1)Oc1ccccc1", "note": "(stereo partly drawn) [Compound 288, butyl (((2-(((3S,6S,9aS)-3-(3-(3-methylpyridin-2-yl)azetidine-1-carbonyl)-5-oxooctahydro-1H-pyrrolo[1,2-a]azepin-6-yl)carbamoyl)benzo [b]thiophen-5-yl)methyl)(phenoxy)phosphoryl)-L-alaninate]", "IC50": "100 to 1000"}
{"smiles": "CC(C)CC(=O)SCCOP(=O)(OCCSC(=O)CC(C)C)C(F)(F)c1ccc2sc(C(=O)N[C@H]3CCC[C@H]4CC[C@@H](C(=O)N5CC(c6nncn6C)C5)N4C3=O)cc2c1", "note": "[Compound 966, S,S′-((((difluoro(2-(((3S,6S,9aS)-3-(3-(4-methyl-4H-1,2,4-triazol-3-yl)azetidine-1-carbonyl)-5-oxooctahydro-1H-pyrrolo[1,2-a]azepin-6-yl)carbamoyl)benzo [b]thiophen-5-yl)methyl)phosphoryl)bis(oxy))bis(ethane-2,1-diyl)) bis(3-methylbutanethioate)]", "IC50": "< 100"}
{"smiles": "CCCOC(=O)[C@H](CC)NP(=O)(Cc1ccc2sc(C(=O)N[C@H]3CCC[C@H]4CC[C@@H](C(=O)N5CC(c6cccnc6)C5)N4C3=O)cc2c1)Oc1ccccc1", "note": "(stereo partly drawn) [Compound 296, propyl (2S)-2-((((2-(((3S,6S,9aS)-5-oxo-3-(3-(pyridin-3-yl)azetidine-1-carbonyl)octahydro-1H-pyrrolo[1,2-a]azepin-6-yl)carbamoyl)benzo [b]thiophen-5-yl)methyl)(phenoxy)phosphoryl)amino) butanoate]", "IC50": "< 100"}
{"smiles": "CC(C)OC(=O)[C@H](C)NP(=O)(Oc1ccccc1)C(F)c1ccc2sc(C(=O)N[C@H]3CCC[C@H]4CC[C@@H](C(=O)N5CC(c6cnccc6F)C5)N4C3=O)cc2c1", "note": "(stereo partly drawn) [Compound 972, isopropyl ((fluoro(2-(((3S,6S,9aS)-3-(3-(4-fluoropyridin-3-yl)azetidine-1-carbonyl)-5-oxooctahydro-1H-pyrrolo[1,2-a]azepin-6-yl)carbamoyl)benzo [b]thiophen-5-yl)methyl) (phenoxy)phosphoryl)-L-alaninate]", "IC50": "< 100"}
{"smiles": "CCCOC(=O)[C@H](C)NP(=O)(Oc1ccccc1)C(F)c1ccc2sc(C(=O)N[C@H]3CCC[C@H]4CC[C@@H](C(=O)N5CC(c6cc(F)ccc6OC)C5)N4C3=O)cc2c1", "note": "(stereo partly drawn) [Compound 957, propyl ((fluoro(2-(((3S,6S,9aS)-3-(3-(5-fluoro-2-methoxyphenyl)azetidine-1-carbonyl)-5-oxooctahydro-1H-pyrrolo[1,2-a]azepin-6-yl)carbamoyl)benzo [b]thiophen-5-yl)methyl)(phenoxy)phosphoryl)-L-alaninate]", "IC50": "> 3000"}
{"smiles": "COc1ccncc1C1CN(C(=O)[C@@H]2CC[C@@H]3CCC[C@H](NC(=O)c4cc5cc([C@@H](F)[P@](=O)(N[C@@H](C)C(=O)OCC(C)(C)C)Oc6ccccc6)ccc5s4)C(=O)N32)C1", "note": "(single isomer, unassigned) [Compound 1057]", "IC50": "< 100"}
{"smiles": "CCCOC(=O)[C@H](C)NP(=O)(Cc1ccc2sc(C(=O)N[C@H]3CCC[C@H]4CC[C@@H](C(=O)N5CC(c6c(F)ccnc6C)C5)N4C3=O)cc2c1)Oc1ccccc1", "note": "(stereo partly drawn) [Compound 978, propyl (((2-(((3S,6S,9aS)-3-(3-(4-fluoro-2-methylpyridin-3-yl)azetidine-1-carbonyl)-5-oxooctahydro-1H-pyrrolo[1,2-a]azepin-6-yl)carbamoyl)benzo [b]thiophen-5-yl)methyl)(phenoxy)phosphoryl)-L-alaninate]", "IC50": "100 to 1000"}
{"smiles": "CCCOC(=O)[C@H](C)NP(=O)(Oc1ccccc1)C(F)c1ccc2sc(C(=O)N[C@H]3CCC[C@H]4CC[C@@H](C(=O)N5CC(c6cnccc6O)C5)N4C3=O)cc2c1", "note": "(stereo partly drawn) [Compound 974, propyl ((fluoro(2-(((3S,6S,9aS)-3-(3-(4-hydroxypyridin-3-yl)azetidine-1-carbonyl)-5-oxooctahydro-1H-pyrrolo[1,2-a]azepin-6-yl)carbamoyl)benzo [b]thiophen-5-yl)methyl)(phenoxy)phosphoryl)-L-alaninate]", "IC50": "100 to 1000"}
{"smiles": "CCCOC(=O)[C@H](C)NP(=O)(Oc1ccccc1)[C@@H](F)c1ccc2sc(C(=O)N[C@H]3CCC[C@H]4CC[C@@H](C(=O)N5CC(c6cncnc6N6CCOCC6)C5)N4C3=O)cc2c1", "note": "(stereo partly drawn) [Compound 1066, propyl (((R)-fluoro(2-(((3S,6S,9aS)-3-(3-(4-morpholino-pyrimidin-5-yl)azetidine-1-carbonyl)-5-oxooctahydro-1H-pyrrolo[1,2-a]azepin-6-yl)carbamoyl)benzo [b]thiophen-5-yl)methyl)(phenoxy)phosphoryl)-L-alaninate]", "IC50": "100 to 1000"}
{"smiles": "CC(C)COC(=O)[C@@H](NP(=O)(Cc1ccc2sc(C(=O)N[C@H]3CCC[C@H]4CC[C@@H](C(=O)N5CC(c6cccnc6)C5)N4C3=O)cc2c1)Oc1ccccc1)C(C)C", "note": "(stereo partly drawn) [Compound 948, isobutyl (((2-(((3S,6S,9aS)-5-oxo-3-(3-(pyridin-3-yl)azetidine-1-carbonyl)octahydro-1H-pyrrolo[1,2-a]azepin-6-yl)carbamoyl)benzo [b]thiophen-5-yl)methyl) (phenoxy)phosphoryl)-L-valinate]", "IC50": "1000 to 3000"}
{"smiles": "CCCOC(=O)[C@H](C)NP(=O)(Oc1ccccc1)C(F)c1ccc2sc(C(=O)N[C@H]3CCC[C@H]4CC[C@@H](C(=O)N5CC6(C5)OCc5ccncc56)N4C3=O)cc2c1", "note": "(stereo partly drawn) [Compound 952, propyl ((fluoro(2-(((3S,6S,9aS)-5-oxo-3-(1′H-spiro [azetidine-3,3′-furo[3,4-c]pyridine]-1-carbonyl)octahydro-1H-pyrrolo[1,2-a]azepin-6-yl)carbamoyl)benzo [b]thiophen-5-yl)methyl) (phenoxy)phosphoryl)-L-alaninate]", "IC50": "100 to 1000"}
{"smiles": "CCCOC(=O)[C@H](C)N[P@](=O)(Oc1ccccc1)[C@@H](F)c1ccc2sc(C(=O)N[C@H]3CCC[C@H]4CC[C@@H](C(=O)N5CC(c6cnccc6N6CCOCC6)C5)N4C3=O)cc2c1", "note": "(single isomer, unassigned) [Compound 1046]", "IC50": "100 to 1000"}
